In data set [1] the test system is Blumeria graminis fsp. hordei. The experiment in a line: in vivo preventive test on Blumeria graminis (barley). As to conditions: 500 ppm of active ingredient, evaluated 7 days after inoculation. How it is done: (§1) Solvent: 49 parts by weight of N,N-dimethylacetamide Emulsifier: 1 part by weight of alkylaryl polyglycol ether To produce a suitable preparation of active compound, 1 part by weight of active compound or active compound combination is mixed with the stated amounts of solvent and emulsifier, and the concentrate is diluted with water to the desired concentration. To test for preventive activity, young plants are sprayed with the preparation of active compound or active compound combination at the stated rate of application. After the spray coating has been dried, the plants are dusted with spores of Blumeria graminis fsp. hordei. The plants are placed in the greenhouse at a temperature of approximately 18° C. and a relative atmospheric humidity of approximately 80% to promote the development of mildew pustules. The test is evaluated 7 days after the inoculation. 0% means an efficacy which corresponds to that of the untreated control, while an efficacy of 100% means that no disease is observed.

Data set [2] can be described thus: logP by HPLC on reversed-phase column (EEC Directive 79/831 Annex V.A8). It is filed as physicochemical. The settings on record: HPLC on reversed-phase column (C 18), 40° C., 0.1% aqueous formic acid and acetonitrile, linear gradient 10% to 90% acetonitrile. The method, boiled down:
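Reversed-phase C18 HPLC at 40° C with 0.1% aqueous formic acid/acetonitrile, linear gradient 10% to 90% acetonitrile. LogP obtained from retention time by linear interpolation between successive unbranched alkan-2-ones (3 to 16 carbons) of known logP. Lambda-max taken from UV spectra at 200-400 nm at chromatographic peak maxima.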

For data set [3], the system named is Septoria tritici. The data set can be described thus: in vivo preventive test on Septoria tritici (wheat). The settings on record: 500 ppm of active ingredient, evaluated 21 days after inoculation. How it is done: as §1, with “sprayed” for “dusted”, “a spore suspension” for “spores”, “Septoria tritici. The plants remain for 48 hours in an incubation cabinet at approximately 20° C. and a relative atmospheric humidity of approximately 100% and afterwards for 60 hours at approximately 15° C. in a translucent incubation cabinet at a relative atmospheric humidity of approximately 100%.” for “Blumeria graminis fsp. hordei.”, “15°” for “18°”, “80%.” for “80% to promote the development of mildew pustules.”, “21” for “7”

Data set [4] has as its system Sphaerotheca fuliginea. The experiment in a line: in vivo preventive test on Sphaerotheca fuliginea (cucumber). As to conditions: 500 ppm of active ingredient, evaluated 7 days after inoculation. The protocol: Solvent: 49 parts by weight of N,N-dimethylformamide Emulsifier: 1 part by weight of Alkylarylpolyglycolether To produce a suitable preparation of active compound, 1 part by weight of active compound is mixed with the stated amounts of solvent and emulsifier, and the concentrate is diluted with water to the desired concentration. To test for preventive activity, young plants are sprayed with the preparation of active compound at the stated rate of application. One day after this treatment, the plants are inoculated with an aqueous spore suspension of Sphaerotheca fuliginea. Then the plants are placed in a greenhouse at approximately 23° C. and a relative atmospheric humidity of approximately 70%. The test is evaluated 7 days after the inoculation. 0% means an efficacy which corresponds to that of the untreated control, while an efficacy of 100% means that no disease is observed.

Data set [5] relates to Alternaria solani. The experiment in a line: in vivo preventive test on Alternaria solani (tomato). The settings on record: 500 ppm of active ingredient, evaluated 7 days after inoculation. The protocol: Solvent: 49 parts by weight of N,N-dimethylformamide Emulsifier: 1 part by weight of Alkylarylpolyglycolether To produce a suitable preparation of active compound, 1 part by weight of active compound is mixed with the stated amounts of solvent and emulsifier, and the concentrate is diluted with water to the desired concentration. To test for preventive activity, young plants are sprayed with the preparation of active compound at the stated rate of application. One day after this treatment, the plants are inoculated with an aqueous spore suspension of Alternaria solani. The plants remain for one day in an incubation cabinet at approximately 22° C. and a relative atmospheric humidity of 100%. Then the plants are placed in an incubation cabinet at approximately 20° C. and a relative atmospheric humidity of 96%. The test is evaluated 7 days after the inoculation. 0% means an efficacy which corresponds to that of the untreated control while an efficacy of 100% means that no disease is observed.

Data set [6] deals with Pyrenophora teres. The experiment in a line: in vivo preventive test on Pyrenophora teres (barley). As to conditions: 500 ppm of active ingredient, evaluated 7-9 days after inoculation. How it is done: (§2) Solvent: 49 parts by weight of N,N-dimethylformamide Emulsifier: 1 part by weight of alkylaryl polyglycol ether To produce a suitable preparation of active compound, 1 part by weight of active compound is mixed with the stated amounts of solvent and emulsifier, and the concentrate is diluted with water to the desired concentration. To test for preventive activity, young plants are sprayed with the preparation of active compound at the stated rate of application. One day after this treatment, the plants are inoculated with an aqueous spore suspension of Pyrenophora teres. The plants remain for 48 hours in an incubation cabinet at 22° C. and a relative atmospheric humidity of 100%. Then the plants are placed in a greenhouse at a temperature of approximately 20° C. and a relative atmospheric humidity of approximately 80%. The test is evaluated 7-9 days after the inoculation. 0% means an efficacy which corresponds to that of the untreated control while an efficacy of 100% means that no disease is observed.

Data set [7] deals with Puccinia triticina. The experiment in a line: in vivo protective test on Puccinia triticina (wheat). As to conditions: 500 ppm of active ingredient, preventive, evaluated 8 days after inoculation. How it is done: as §1, with “sprayed” for “dusted”, “a spore suspension” for “spores”, “Puccinia triticina. The plants remain for 48 hours in an incubation cabinet at approximately 20° C. and a relative atmospheric humidity of approximately 100%.” for “Blumeria graminis fsp. hordei.”, “20°” for “18°”, “80%.” for “80% to promote the development of mildew pustules.”, “8” for “7”

The subject of data set [8] is Leptosphaeria nodorum. The data set can be described thus: in vivo preventive test on Leptosphaeria nodorum (wheat). As to conditions: 500 ppm of active ingredient, evaluated 7-9 days after inoculation. How it is done: as §2, with “weight of N,N-dimethylacetamide Emulsifier: 1” for “weight of N,N-dimethylformamide Emulsifier: 1”, “sprayed with a preparation of” for “sprayed with the preparation of”, “suspension of Leptosphaeria nodorum. The plants” for “suspension of Pyrenophora teres. The plants”, “of approximately 22° C. and” for “of approximately 20° C. and”, “of approximately 90%. The test” for “of approximately 80%. The test”, “the untreated control, while an” for “the untreated control while an”

Data set [9] deals with Fusarium nivale (var. majus). The experiment in a line: in vivo curative test on Fusarium nivale (wheat). The settings on record: 500 ppm of active ingredient, evaluated 5 days after inoculation. The protocol: Solvent: 49 parts by weight of N,N-dimethylacetamide Emulsifier: 1 part by weight of alkylaryl polyglycol ether To produce a suitable preparation of active compound, 1 part by weight of active compound or active compound combination is mixed with the stated amounts of solvent and emulsifier, and the concentrate is diluted with water to the desired concentration. To test for curative activity, young plants are slightly injured by using a sandblast and afterwards they are sprayed with a conidia suspension of Fusarium nivale (var. majus) and placed for 24 hours in a greenhouse under a translucent incubation cabinet at a temperature of approximately 10° C. and a relative atmospheric humidity of approximately 100% and are subsequently sprayed with the preparation of active compound at the stated rate of application. After the spray coating has been dried, the plants remain in the greenhouse under translucent incubation cloches at a temperature of approximately 10° C. and a relative atmospheric humidity of approximately 100%. The test is evaluated 5 days after the inoculation. 0% means an efficacy which corresponds to that of the untreated control, while an efficacy of 100% means that no disease is observed.

As a reminder, the logP is the decadic logarithm of the partition coefficient of the neutral form, usually between octanol and water. Low readings indicate lower lipophilicity, high ones higher lipophilicity. Take `Cn1nc(C(F)F)c(C(=O)N(Cc2csc3ccc(Cl)cc23)C2CC2)c1F` [Example 143]: the Efficacy was determined as 94% in [1]; 100% in data set [3]; 95% in [4]; 95% in [5]; 100% in data set [6]. Further, the logP in [2] is 3.73.

Regarding `Cn1nc(C(F)F)c(C(=O)N(Cc2cc3ccccc3n2-c2ccccc2)C2CC2)c1F` [Example 155], the Efficacy in data set [1] is 70%; in [3] it was 100%; in data set [7], 75%; in data set [5], 95%; in data set [8] it was 80%; in data set [9], 100%. Besides, in [6], the Efficacy worked out at 100%. This molecule also displayed a logP in [2] of 3.96.

For `Cc1cc(C(C)N(C(=O)c2c(C(F)F)nn(C)c2F)C2CC2)c(C)s1` (stereo not drawn) [Example 48], the Efficacy in data set [1] amounted to 100%; in [3] it was 100%; in [5], 95%; in [8] it was 100%; in data set [9], 86%; in [6], 100%. This molecule came in with a logP in data set [2] of 3.62.

Regarding `Cn1nc(C(F)F)c(C(=O)N(Cc2cc3ccccc3o2)C2CC2)c1F` [Example 71], the Efficacy in data set [1] was 89%; in [3] it was 100%; in data set [8] it was 80%; in data set [9], 100%; in data set [6], 100%. The logP in data set [2] stood at 3.11.

In [2], `Cc1c(CN(C(=O)c2c(C(F)F)nn(C)c2F)C2CC2)sc2ccccc12` [Example 122] showed a logP of 3.64. Besides, the Efficacy was determined as 100% in data set [3]; 100% in data set [7]; 95% in [5]; 100% in data set [8]; 93% in data set [9]; 100% in data set [6].

As for `Cc1ccsc1CN(C(=O)c1c(C(F)F)nn(C)c1F)C1CC1` [Example 40], the Efficacy is recorded as 100% in data set [1]; 100% in data set [3]; 90% in data set [4]; 71% in data set [7]; 95% in data set [5]; 92% in [9]. This molecule had an Efficacy in [6] of 100%. Besides, the logP in data set [2] stood at 2.88.

In the case of `CC(c1cccnc1Cl)N(C(=O)c1c(C(F)F)nn(C)c1F)C1CC1` (stereo not drawn) [Example 50], the Efficacy in data set [1] is 89%; in data set [3] it was 71%; in data set [4] it was 100%; in [5], 95%; in data set [8], 71%; in [6], 100%. In data set [2], this molecule came in with a logP of 2.23.

For `Cc1nc(C(F)(F)F)c(CN(C(=O)c2c(C(F)F)nn(C)c2F)C2CC2)s1` [Example 140], the logP in [2] came out at 2.75. Also, the Efficacy was 100% in [4], 80% in [5] and 100% in [6].

Turning to `Cn1nc(C(F)F)c(C(=O)N(Cc2cccc3ccsc23)C2CC2)c1F` [Example 93], the Efficacy in [1] is recorded as 94%; in data set [3], 100%; in [7], 100%; in [5], 100%; in data set [9] it was 71%; in data set [6], 100%. The molecule also yielded a logP in data set [2] of 3.19.

Turning to `Cn1nc(C(F)F)c(C(=O)N(Cc2ccnc3ccc(Cl)cc23)C2CC2)c1F` [Example 137], the logP in data set [2] came to 2.44. Besides, the Efficacy is reported as 90% in [4], 80% in data set [5] and 100% in [6].

`Cc1c(CN(C(=S)c2c(C(F)F)nn(C)c2F)C2CC2)sc2ccccc12` [Example 124] returned a logP in data set [2] of 4.31. The Efficacy in data set [4] is 98%; in [5], 100%; in [6], 100%.

In data set [2], `Cn1nc(C(F)F)c(C(=O)N(Cc2c(Cl)cncc2Cl)C2CC2)c1F` [Example 115] displayed a logP of 2.54. Further, the Efficacy in data set [3] is 86%; in data set [4] it was 83%; in [5] it was 100%; in data set [8], 80%; in [9] it was 71%; in data set [6], 100%.

The values are drawn from patent US9320276B2, “N-hetarylmethyl pyrazolylcarboxamides” (BAYER INTELLECTUAL PROPERTY GMBH, priority 2010, dated 2016).
